Experimental data: the supplement of paper PMC11451515

Test system: SEM cells
Test: cell viability relative to DMSO control; higher = less cytotoxic
Conditions: 48 h
How it was run: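 Viability is a per-plate percentage relative to DMSO wells, with cell-free wells as background. CellTiter-Glo One luminescence was read after 48 h at 37°C on 1536-well plates (5 μl) of NOMO1 or SEM (500 cells/well) or P12-Ichikawa (1000 cells/well) leukemia cells. The cells had been adapted for at least four passages in each medium and pin-dosed with library compounds in DMSO from 47 μM to 0.79 nM in 11 threefold steps.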

[1] = HPLM + 10% dialyzed FBS, 0.000781 µM
[2] = HPLM + 10% dialyzed FBS, 0.00234 µM
[3] = HPLM + 10% dialyzed FBS, 0.00702 µM
[4] = HPLM + 10% dialyzed FBS, 0.0211 µM
[5] = HPLM + 10% dialyzed FBS, 0.0632 µM
[6] = HPLM + 10% dialyzed FBS, 0.19 µM
[7] = HPLM + 10% dialyzed FBS, 0.569 µM
[8] = HPLM + 10% dialyzed FBS, 1.71 µM
[9] = HPLM + 10% dialyzed FBS, 5.12 µM
[10] = HPLM + 10% dialyzed FBS, 15.4 µM
[11] = HPLM + 10% dialyzed FBS, 46.1 µM
[12] = RPMI 5 mM glucose + 10% FBS, 0.000781 µM
[13] = RPMI 5 mM glucose + 10% FBS, 0.00234 µM
[14] = RPMI 5 mM glucose + 10% FBS, 0.00702 µM
[15] = RPMI 5 mM glucose + 10% FBS, 0.0211 µM
[16] = RPMI 5 mM glucose + 10% FBS, 0.0632 µM
[17] = RPMI 5 mM glucose + 10% FBS, 0.19 µM
[18] = RPMI 5 mM glucose + 10% FBS, 0.569 µM
[19] = RPMI 5 mM glucose + 10% FBS, 1.71 µM
[20] = RPMI 5 mM glucose + 10% FBS, 5.12 µM
[21] = RPMI 5 mM glucose + 10% FBS, 15.4 µM
[22] = RPMI 5 mM glucose + 10% FBS, 46.1 µM
[23] = RPMI 5 mM glucose + 10% dialyzed FBS, 0.000781 µM
[24] = RPMI 5 mM glucose + 10% dialyzed FBS, 0.00234 µM
[25] = RPMI 5 mM glucose + 10% dialyzed FBS, 0.00702 µM
[26] = RPMI 5 mM glucose + 10% dialyzed FBS, 0.0211 µM
[27] = RPMI 5 mM glucose + 10% dialyzed FBS, 0.0632 µM
[28] = RPMI 5 mM glucose + 10% dialyzed FBS, 0.19 µM
[29] = RPMI 5 mM glucose + 10% dialyzed FBS, 0.569 µM
[30] = RPMI 5 mM glucose + 10% dialyzed FBS, 1.71 µM
[31] = RPMI 5 mM glucose + 10% dialyzed FBS, 5.12 µM
[32] = RPMI 5 mM glucose + 10% dialyzed FBS, 15.4 µM
[33] = RPMI 5 mM glucose + 10% dialyzed FBS, 46.1 µM

Structure (SMILES)	cell viability [1] [%]	cell viability [2] [%]	cell viability [3] [%]	cell viability [4] [%]	cell viability [5] [%]	cell viability [6] [%]	cell viability [7] [%]	cell viability [8] [%]	cell viability [9] [%]	cell viability [10] [%]	cell viability [11] [%]	cell viability [12] [%]	cell viability [13] [%]	cell viability [14] [%]	cell viability [15] [%]	cell viability [16] [%]	cell viability [17] [%]	cell viability [18] [%]	cell viability [19] [%]	cell viability [20] [%]	cell viability [21] [%]	cell viability [22] [%]	cell viability [23] [%]	cell viability [24] [%]	cell viability [25] [%]	cell viability [26] [%]	cell viability [27] [%]	cell viability [28] [%]	cell viability [29] [%]	cell viability [30] [%]	cell viability [31] [%]	cell viability [32] [%]	cell viability [33] [%]
CC[C@H](NC1=C2N=C[NH]C2=NC=N1)C/3=N/C4=C(C(=CC=C4)F)C(=O)N3C5=CC=CC=C5	94.9	118	133	120	114	97.2	87.4	106	81.7	73.6	52.1	79.2	94.8	112	105	111	108	88.2	88.9	84.5	57.6	53.1	90.2	110	132	120	116	84.2	116	110	92.8	80.1	57.3
CCC[S+]([O-])c1ccc2[nH]c(NC(=O)OC)nc2c1 (stereo not drawn)	78.9	96.2	111	86.7	100	105	83.1	94.9	94.6	38.2	33.4	74.9	99.4	100	99.3	114	93.9	82	84.9	91.8	24.4	32.2	72.7	99.8	95.9	109	101	113	83.1	105	98.6	23.2	17.3
C[C@@]12C(=O)OC(=O)[C@@]1(C)C1CCC2O1	118	103	112	112	114	107	112	95.1	87.1	6.65	4.55	105	113	112	112	112	110	124	104	73.1	5.81	4.32	120	116	110	124	120	113	114	96.8	58.2	6.57	4.36
c1ccc(CCCN2CCN(CCOC(c3ccccc3)c3ccccc3)CC2)cc1	27.6	98.3	99.1	103	97.9	104	87.4	99.9	87.1	33.9	44.6	69.2	106	104	98	91.7	85.9	102	89	91	19.2	61.8	78.9	103	114	100	99.4	96	73	96.5	92.5	23	50.5
C[C@]12CC[C@@H]3c4ccc(O)cc4CC[C@H]3[C@@H]1[C@@H](O)[C@@H](O)[C@@H]2O	104	119	112	115	116	127	123	86	125	99.9	84.1	87.8	125	110	82	102	88.5	94.2	80	99	99.4	38.8	101	110	120	118	121	132	126	90	129	103	64.5
COc1ccc([S+](=O)([O-])N(C(C)=O)c2ccccc2/C=C/c2cc[n+]([O-])cc2)cc1	124	122	133	141	125	125	124	55.4	26.1	26.5	23	122	131	115	126	97.1	103	111	39.1	20.3	18.4	13.4											
CC(C)C1NC(=O)C(NC(=O)C2=C3\N=C\4/C(=C(C)\C(=O)\C(=C4C(=O)NC5C(C)OC(=O)C(C(C)C)N(C)C(=O)CN(C)C(=O)C6CCCN6C(=O)C(NC5=O)C(C)C)N)OC3=C(C)C=C2)C(C)OC(=O)C(C(C)C)N(C)C(=O)CN(C)C(=O)C7CCCN7C1=O (stereo not drawn)	8.02	8.45	8.63	7.17	5.33	4.97	5.75	5.02	3.36	1.81	1.57	6.55	8.45	7.11	5.21	4.11	3.76	4.54	3.75	2.28	1.15	1.09	6.94	7.82	7.08	7.7	5.11	4.36	5.1	3.89	1.96	2.2	1.26
C[C@@H](Oc1cc(-c2cnn(C3CCNCC3)c2)cnc1N)c1c(Cl)ccc(F)c1Cl	105	121	123	124	121	114	111	110	61.6	35.1	23.5	81.4	78.5	85.6	83.6	82.5	71.3	83.4	77.3	58.4	29.5	13.6	112	124	114	114	97.1	113	120	116	91.5	33.3	28.3
